No end group written: not given here.
Tests used:
[1] = molecular target: T1, protease K (Parengyodontium album, UniProt P06873)
[2] = molecular target: T1, protease K; assay: in vitro; details: isolated enzyme
[3] = tested on: BALB/c mice; details: mouse, in vivo, sc

T1 sequence (P06873 106-384 limits assumed): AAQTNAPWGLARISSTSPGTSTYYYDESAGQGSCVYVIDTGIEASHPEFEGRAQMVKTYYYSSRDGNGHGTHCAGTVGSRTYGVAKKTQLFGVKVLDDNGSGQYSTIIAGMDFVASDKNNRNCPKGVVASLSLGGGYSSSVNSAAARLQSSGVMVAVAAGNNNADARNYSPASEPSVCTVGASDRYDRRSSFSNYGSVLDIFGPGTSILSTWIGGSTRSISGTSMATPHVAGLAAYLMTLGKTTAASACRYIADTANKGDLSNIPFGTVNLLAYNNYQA

For SEFMRNALEEMLRRA-NH2 [RSIpep], the “t1/2 with protease K” value [1] was “less than 1 h”, the half-life [2] was 37.2 ± 1.8 min and the “pathological section analysis of heart, liver, spleen, lung, kidney” value [3] was “no discernible pathological alterations”.

— PMC11321638 (Advanced Science, 2024)
